Test results published in ChEMBL document CHEMBL1201862, “PubChem BioAssay data set” (2004).
Each block holds one compound with its values, some of them ahead of it. The source made the active and inactive calls.

Legend:
[1] = NIH/3T3 cell viability loss – mouse embryonic fibroblasts, dry powder, set 2, cytotoxicity control, dose response (AID 493247); assay type: functional, cell-based; conditions: Fibroblast
Trypanosoma cruzi = experiment: anti-trypanosomal activity in host cells – cell-based, plate reader, dry powder, set 3, dose response (AID 493197); assay type: functional
[2] = target: T1, Tyrosine-protein phosphatase non-receptor type 7 (Homo sapiens, UniProt P35236); experiment: inhibition of hematopoietic tyrosine phosphatase HePTP – biochemical, set 2, SAR follow-up (AID 449736); assay type: functional
T1 sequence (P35236 whole entry): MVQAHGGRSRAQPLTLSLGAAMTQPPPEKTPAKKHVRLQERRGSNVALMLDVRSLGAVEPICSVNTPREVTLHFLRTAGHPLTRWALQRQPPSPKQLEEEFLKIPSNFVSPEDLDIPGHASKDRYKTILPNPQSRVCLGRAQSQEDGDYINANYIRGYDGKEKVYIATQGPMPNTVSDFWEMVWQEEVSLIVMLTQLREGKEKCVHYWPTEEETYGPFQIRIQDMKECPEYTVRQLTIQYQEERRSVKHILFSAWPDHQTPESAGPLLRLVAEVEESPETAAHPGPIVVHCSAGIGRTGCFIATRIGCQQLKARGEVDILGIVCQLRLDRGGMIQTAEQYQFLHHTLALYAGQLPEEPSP

[3] = target: T2, Intestinal-type alkaline phosphatase (Homo sapiens, UniProt P09923); experiment: human intestinal alkaline phosphatase activators, dose response, biochemical, luminescence, uHTS hits (AID 463120); assay type: functional
T2 sequence (P09923 whole entry): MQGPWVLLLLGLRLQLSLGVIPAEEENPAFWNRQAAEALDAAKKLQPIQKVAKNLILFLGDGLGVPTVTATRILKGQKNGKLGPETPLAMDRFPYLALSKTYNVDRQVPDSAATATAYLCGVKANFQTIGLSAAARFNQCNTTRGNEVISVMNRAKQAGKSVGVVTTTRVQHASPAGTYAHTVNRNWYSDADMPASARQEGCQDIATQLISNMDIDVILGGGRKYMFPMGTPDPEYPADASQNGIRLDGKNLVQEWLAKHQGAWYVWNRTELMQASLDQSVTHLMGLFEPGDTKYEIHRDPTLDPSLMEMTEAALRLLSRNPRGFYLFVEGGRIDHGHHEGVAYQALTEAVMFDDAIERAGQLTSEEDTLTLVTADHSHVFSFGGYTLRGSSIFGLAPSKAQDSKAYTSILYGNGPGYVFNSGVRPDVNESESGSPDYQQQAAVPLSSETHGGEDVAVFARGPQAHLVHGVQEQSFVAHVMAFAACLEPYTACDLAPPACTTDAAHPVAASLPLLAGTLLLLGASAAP

[4] = target: T2, Intestinal-type alkaline phosphatase; experiment: Dose Response confirmation of uHTS hits from a small molecule inhibitors of human intestinal alkaline phosphatase via a luminescent assay. [Related pubchem assays (depositor defined):AID2544, AID2574]; assay type: functional
[5] = target: Neurotensin receptor type 1 (Homo sapiens, UniProt P30989); assay type: functional;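 also: Image-based confirmatory dose-response assay measuring agonist activity at NTR1; NTR1-expressing U2OS osteosarcoma cells imaged for beta-arrestin GFP spot formation; agonist potency where compounds increase beta-arrestin recruitment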
Neurotensin receptor type 1, sequence (P30989 whole entry, the tested form may be a part): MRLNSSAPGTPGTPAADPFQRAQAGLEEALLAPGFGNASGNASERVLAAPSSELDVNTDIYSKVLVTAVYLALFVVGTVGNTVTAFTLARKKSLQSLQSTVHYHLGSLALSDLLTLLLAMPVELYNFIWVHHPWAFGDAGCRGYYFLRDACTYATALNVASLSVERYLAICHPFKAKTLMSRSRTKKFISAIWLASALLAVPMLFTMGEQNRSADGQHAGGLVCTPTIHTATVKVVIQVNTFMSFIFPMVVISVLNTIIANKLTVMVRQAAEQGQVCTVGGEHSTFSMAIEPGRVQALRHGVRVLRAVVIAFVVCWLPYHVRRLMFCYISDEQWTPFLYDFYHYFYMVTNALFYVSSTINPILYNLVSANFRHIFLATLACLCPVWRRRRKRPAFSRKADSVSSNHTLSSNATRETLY

Perilipin-1/ABHD5 = Perilipin-1/ABHD5 (Homo sapiens, UniProt O60240+Q8WTS1); experiment: Luminescence-based biochemical high throughput dose response assay for inhibitors of the interaction of the lipase co-activator protein, abhydrolase domain containing 5 (ABHD5) with perilipin-1 (PLIN1) (2K validation set). [Related pubchem assays (depositor defined):AID493027, AID493057]
Perilipin-1/ABHD5, sequence (Q8WTS1 whole entry, the tested form may be a part): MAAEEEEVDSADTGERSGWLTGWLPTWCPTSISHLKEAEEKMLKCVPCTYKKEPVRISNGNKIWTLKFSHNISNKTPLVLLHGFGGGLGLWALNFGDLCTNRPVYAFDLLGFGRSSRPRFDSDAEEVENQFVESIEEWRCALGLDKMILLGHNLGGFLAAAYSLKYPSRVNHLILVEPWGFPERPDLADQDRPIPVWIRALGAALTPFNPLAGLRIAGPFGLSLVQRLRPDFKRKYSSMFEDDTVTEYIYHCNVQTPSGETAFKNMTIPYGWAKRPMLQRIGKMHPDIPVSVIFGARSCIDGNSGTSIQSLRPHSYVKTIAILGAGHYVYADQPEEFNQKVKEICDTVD
Perilipin-1/ABHD5, sequence (O60240 whole entry, the tested form may be a part): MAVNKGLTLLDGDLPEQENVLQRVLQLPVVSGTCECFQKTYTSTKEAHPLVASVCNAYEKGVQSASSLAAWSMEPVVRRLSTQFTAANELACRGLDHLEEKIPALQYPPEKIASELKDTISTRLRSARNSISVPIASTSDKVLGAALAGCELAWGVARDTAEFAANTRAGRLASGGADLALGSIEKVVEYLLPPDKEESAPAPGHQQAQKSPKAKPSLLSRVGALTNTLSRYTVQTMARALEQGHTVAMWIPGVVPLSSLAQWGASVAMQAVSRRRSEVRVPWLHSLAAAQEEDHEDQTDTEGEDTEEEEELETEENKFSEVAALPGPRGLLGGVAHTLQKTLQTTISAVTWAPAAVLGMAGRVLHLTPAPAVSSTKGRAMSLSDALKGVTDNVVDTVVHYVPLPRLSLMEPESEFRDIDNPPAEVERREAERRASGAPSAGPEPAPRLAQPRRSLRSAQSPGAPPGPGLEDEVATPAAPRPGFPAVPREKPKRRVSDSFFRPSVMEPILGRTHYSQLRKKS

[6] = target: 1-acylglycerol-3-phosphate O-acyltransferase ABHD5/Perilipin-5 (Homo sapiens, UniProt Q00G26+Q8WTS1); experiment: Luminescence-based biochemical high throughput dose response assay for inhibitors of the interaction of the lipase co-activator protein, abhydrolase domain containing 5 (ABHD5) with perilipin-5 (MLDP; PLIN5) (2K validation set). [Related pubchem assays (depositor defined):AID493035, AID493241]
1-acylglycerol-3-phosphate O-acyltransferase ABHD5/Perilipin-5, sequence (Q00G26 whole entry, the tested form may be a part): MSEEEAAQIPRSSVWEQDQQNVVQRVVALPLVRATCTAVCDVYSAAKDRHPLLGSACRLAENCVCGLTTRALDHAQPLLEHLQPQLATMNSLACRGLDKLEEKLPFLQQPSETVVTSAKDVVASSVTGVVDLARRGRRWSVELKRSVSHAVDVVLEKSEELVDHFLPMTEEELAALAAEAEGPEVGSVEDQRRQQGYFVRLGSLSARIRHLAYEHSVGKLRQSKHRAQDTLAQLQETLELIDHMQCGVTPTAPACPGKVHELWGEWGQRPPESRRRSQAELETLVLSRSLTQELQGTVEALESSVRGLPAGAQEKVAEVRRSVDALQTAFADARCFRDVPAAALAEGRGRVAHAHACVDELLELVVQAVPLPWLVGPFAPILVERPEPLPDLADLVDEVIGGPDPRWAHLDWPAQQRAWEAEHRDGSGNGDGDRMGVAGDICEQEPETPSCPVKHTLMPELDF
1-acylglycerol-3-phosphate O-acyltransferase ABHD5/Perilipin-5, sequence (Q8WTS1 whole entry, the tested form may be a part): as the sequence (Q8WTS1 whole entry, the tested form may be a part) above

Caspase-7 = Caspase-7 (Homo sapiens, UniProt P55210); experiment: potency of procaspase-7 enzyme activation – biochemical, absorbance, human, dual procaspase-3/-7 activator project, dose response (AID 504330)
Caspase-3 = target: T3, Caspase-3 (Homo sapiens, UniProt P42574); experiment: activators of human procaspase-3 D3A mutant – biochemical, absorbance, PC-3 D3A mutant, counter-screen for dual procaspase-3/7 activator project, dose response (AID 504328)
T3 sequence (P42574 whole entry): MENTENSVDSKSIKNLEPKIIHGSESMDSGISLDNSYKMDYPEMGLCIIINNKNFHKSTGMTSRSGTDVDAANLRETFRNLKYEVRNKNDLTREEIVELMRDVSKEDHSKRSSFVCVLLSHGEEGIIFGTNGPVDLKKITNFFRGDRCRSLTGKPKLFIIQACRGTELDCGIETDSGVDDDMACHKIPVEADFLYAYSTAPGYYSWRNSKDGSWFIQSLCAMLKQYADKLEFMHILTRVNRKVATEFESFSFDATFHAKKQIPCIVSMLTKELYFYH

Structure (SMILES): COc1ccc(CCN(C)C(=O)C2CCCN(Cc3ccc(F)cc3)C2)cc1OC (stereo not given)
AC50 [1]: 64.7 µM (active) | AC50 (Trypanosoma cruzi): 4.33 µM (active)

IC50 [2]: 87.1 µM (active)
Structure (SMILES): Cc1ccc(NC(=O)c2sc(=S)n(-c3cc(C)ccc3F)c2N)cc1

EC50 [3]: > 100 µM (inactive) | IC50 [4]: > 100 µM (inactive)
Structure (SMILES): CCn1cc(CN2CCN(C)C(CCO)C2)c2ccccc21 (stereo not given)

EC50 [5]: 8.29 µM (active) | IC50 (Perilipin-1/ABHD5): 2.28 µM (active) | IC50 [6]: 3.1 µM (active)
Structure (SMILES): O=C1ON=C(c2ccc(Cl)cc2)/C1=C/c1ccc(O)cc1

EC50 (Caspase-7): > 85.3 µM (inactive) | EC50 (Caspase-3): > 85.3 µM (inactive)
Structure (SMILES): COc1ccc(-c2cc(C(=O)OC3CCOC3=O)c3ccccc3n2)cc1OC (stereo not given)
